# According to BindingDB's records for doi:10.1016/s0960-894x(02)00585-1 (Corvas International, 2002):
# Biological target: Prothrombin (Homo sapiens, UniProt P00734)
# Experiment: In vitro inhibitory activity against human Thrombin (FIIa) cleavage of the chromogenic substrate
row,SMILES,Ki
1,Cc1ccc(NS(=O)(=O)c2ccc3c(c2)CCO3)c(=O)n1CC(=O)NCc1ccc2c[nH]nc2c1,1320 nM
2,Cc1cc2cn[nH]c2cc1CNC(=O)Cn1c(C)ccc(NS(=O)(=O)Cc2ccccc2)c1=O,271 nM
3,Cc1cnc(NCCc2ccc3c(c2)CCC3)c(=O)n1CC(=O)NCc1ccc2[nH]ccc2c1,30 nM
4,Cc1ccc(NS(=O)(=O)Cc2ccccc2)c(=O)n1CC(=O)NCc1ccc2c(N)noc2n1,203 nM
5,Cc1ccc(NS(=O)(=O)Cc2ccccc2)c(=O)n1CC(=O)NCc1ccc2c(N)[nH]nc2c1,224 nM
6,Cc1cnc(NCC2(c3ccccn3)CC2)c(=O)n1CC(=O)NCc1ccc2c(N)noc2c1,26 nM
7,Cc1cnc(NCC(c2ccccc2)c2ccccc2)c(=O)n1CC(=O)NCc1ccc2c(N)noc2c1,31 nM
8,Cc1ccc(NS(=O)(=O)c2ccc3c(c2)CCO3)c(=O)n1CC(=O)NCc1ccc2[nH]nc(N)c2c1,29 nM
9,Cc1cnc(NCCc2ccccc2)c(=O)n1CC(=O)NCc1ccc2[nH]nc(O)c2c1,33 nM
10,CCc1cnc(NCCc2ccccc2)c(=O)n1CC(=O)NCc1ccc2[nH]ccc2c1,24 nM
11,Cc1cnc(NCCc2ccccc2)c(=O)n1CC(=O)NCc1ccc2c(N)noc2c1,82 nM
12,Cc1cnc(NCCc2ccc3c(c2)CCC3)c(=O)n1CC(=O)NCc1ccc2c(ccn2N)c1,12400 nM
13,Cc1nc2cc(CNC(=O)Cn3c(C)cnc(NCCc4ccccc4)c3=O)ccc2[nH]1,> 3970 nM
14,Cc1ccc(NS(=O)(=O)Cc2ccccc2)c(=O)n1CC(=O)NCc1ccc2c(N)[nH]nc2n1,1590 nM
15,Cc1ccc(NS(=O)(=O)Cc2ccccc2)c(=O)n1CC(=O)NCc1ccc2[nH]nc(N)c2c1,73 nM
16,Cc1n[nH]c2ccc(CNC(=O)Cn3c(C)cnc(NCCc4ccccc4)c3=O)cc12,444 nM
17,Cc1cnc(NCCc2ccc(F)cc2)c(=O)n1CC(=O)NCc1ccc2c(N)noc2c1,18 nM
18,Cc1cnc(NCCc2ccccc2)c(=O)n1CC(=O)NCc1ccc2nc(N)sc2c1,> 3970 nM
19,Cc1ccc(NS(=O)(=O)Cc2ccccc2)c(=O)n1CC(=O)NCc1ccc2c(N)noc2c1,74 nM
20,Cc1cnc(NCCc2ccccc2)c(=O)n1CC(=O)NCc1ccc2[nH]nnc2c1,224 nM

# Further lines, results first:
row,Ki,SMILES
1,3.1 nM,Cc1cnc(NCCc2ccccn2)c(=O)n1CC(=O)NCc1ccc2[nH]ncc2c1
2,5.7 nM,Cc1cnc(NC[C@H](C)c2ccccc2)c(=O)n1CC(=O)NCc1ccc2[nH]ncc2c1
3,9.3 nM,Cc1cnc(NC[C@@H](C)c2ccccc2)c(=O)n1CC(=O)NCc1ccc2[nH]cnc2c1
4,4.1 nM,Cc1cnc(NCC(F)(F)c2ccccc2)c(=O)n1CC(=O)NCc1ccc2[nH]nc(N)c2c1
5,10 nM,Cc1cnc(NCC2(c3ccccc3)CCC2)c(=O)n1CC(=O)NCc1ccc2[nH]nc(O)c2c1
6,15 nM,Cc1cnc(NCC2(c3ccc(F)cc3)CC2)c(=O)n1CC(=O)NCc1ccc2[nH]nc(N)c2c1
7,3.9 nM,Cc1ccc(NS(=O)(=O)c2ccc3c(c2)CCO3)c(=O)n1CC(=O)NCc1ccc2[nH]ncc2c1
8,6.5 nM,Cc1ccc(NS(=O)(=O)Cc2ccc(Cl)cc2)c(=O)n1CC(=O)NCc1ccc2[nH]cnc2c1
9,9 nM,COc1ccc(C2(CNc3ncc(C)n(CC(=O)NCc4ccc5[nH]nc(N)c5c4)c3=O)CC2)cc1
10,2.5 nM,Cc1cnc(NCC(F)(F)c2ccccc2)c(=O)n1CC(=O)NCc1ccc2c(N)noc2c1
11,16 nM,Cc1cnc(NCC2(c3ccc(F)cc3)CC2)c(=O)n1CC(=O)NCc1ccc2c(N)noc2c1
12,18 nM,Cc1cnc(NCCc2ccccc2)c(=O)n1CC(=O)NCc1ccc2[nH]ncc2c1
13,5 nM,COc1ccc(CCNc2ncc(C)n(CC(=O)NCc3ccc4[nH]cnc4c3)c2=O)cc1
14,2.9 nM,Cc1cnc(NCCc2ccc3c(c2)CCO3)c(=O)n1CC(=O)NCc1ccc2[nH]ncc2c1
15,10 nM,COc1cccc(CCNc2ncc(C)n(CC(=O)NCc3ccc4[nH]ncc4c3)c2=O)c1
16,0.7 nM,Cc1nc(N)ccc1CNC(=O)Cn1c(C)ccc(NS(=O)(=O)Cc2ccccc2)c1=O [L-374087]
